From patent US7687465B2, “Therapeutic cancer vaccine” (Kraeftens Bekaempelse, priority 2003, dated 2010)

Tested on: PBL from HLA-A3 antigen positive melanoma patients
Test: ELISPOT in PBL from HLA-A3 antigen positive melanoma patients
Type: cell-based, human
Procedure: T-cell response against the ML-IAP245-253 ([…]) peptide as measured in an ELISPOT in PBL from 14 melanoma patients. T-lymphocytes were stimulated once with peptide before plated in triplicates either without or with peptide. The average number of peptide specific cells (after subtraction of spots without added peptide) was calculated for each patient as the number of spot forming cells per 10^5 CD8 positive cells after subtraction of the number of background spots formed without addition of peptide using the ImmunoSpot® Series 2.0 Analyzer (CTL Analyzers, LLC, Cleveland, US).
To extend the sensitivity of the ELISPOT assay, PBL were stimulated once in vitro prior to analysis^17,18. At day 0, PBL or crushed lymph nodes were thawed and plated in 2 ml/well at a concentration of 2×10^6 cells in 24-well plates (Nunc, Denmark) in X-vivo medium (Bio Whittaker, Walkersville, Md.), 5% heat-inactivated human serum, and 2 mM of L-glutamine in the presence of 10 μM of peptide. […]
The ELISPOT assay used to quantify peptide epitope-specific interferon-γ-releasing effector cells was performed as described previously^19. […] The spots were counted using the AlphaImager System (Alpha Innotech, San Leandro, Calif. USA) and the peptide specific CTL frequency could be calculated from the numbers of spot-forming cells. […]

## RLQEERTCK (listed as Homo sapiens) [mL-IAP245-253]
In the five responding patients
  peptide specific T-cells per 10^5 CD8+ cells: more than 200 per 10^5 CD8+ cells
Of 14 HLA-A3 antigen positive melanoma patients, response of more than 200 specific T-cells per 10^5 CD8+ cells
  patients hosting an immune response against the peptide: five
